Results on 29 molecules are retold here after patent publication US9452997B2, “Piperidine and piperazine derivatives as autotaxin inhibitors” (Merck Patent GmbH, priority 2009, dated 2016).

Some results are limits rather than exact numbers.

In the assay the target is T1, Recombinant autotaxin (Homo sapiens, UniProt Q13822).
T1 construct: made in house; host or cells: Hi5 insect cells (baculovirus)
Put plainly: Autotaxin assay (Amplex Red, LPC substrate). The assay is classed as biochemical. The note with it: recombinant autotaxin, LPC substrate, Amplex Red detection; values given as upper bounds. A digest of the protocol:
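Recombinant autotaxin (Hi5 baculovirus, 16 ng) pre-incubated with compound 30 min at 22° C, then reacted with 75 μM egg LPC for 90 min at 37° C. Choline released is coupled to H2O2 and Amplex Red fluorescence (ex 485/em 612 nm). IC50 from ten 1:3 dilutions from 30 μM, duplicates, normalised to 500 μM C14 LPA.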

The term IC50 denotes the concentration that inhibits the measured activity by half.

As to `CC(OC(=O)N1CCN(C2CCN(C(=O)c3ccc4[nH]nnc4c3)CC2)CC1)c1ccc(C(F)(F)F)cc1` (centres unmarked) [Compound 132, 4-[1-(1H-Benzotriazole-5-carbonyl)-piperidin-4-yl]-piperazine-1-carboxylic acid 1-(4-trifluoromethyl-phenyl)-ethyl ester], the half-maximal inhibitory concentration (IC50) is < 10 µM. Consider `O=C(CCc1cc(Cl)c(F)c(Cl)c1)N1CCC(N2CCN(C(=O)c3ccc4[nH]nnc4c3)CC2)CC1` [Compound 133, 1-{4-[4-(1H-Benzotriazole-5-carbonyl)-piperazin-1-yl]-piperidin-1-yl}-3-(3,5-dichloro-4-fluoro-phenyl)-propan-1-one], for which the IC50 is < 10 µM. The result for `Cn1nc2ccccc2c1COC(=O)N1CCN(C2CCN(C(=O)c3ccc4[nH]nnc4c3)CC2)CC1` [Compound 134, 4-[1-(1H-Benzotriazole-5-carbonyl)-piperidin-4-yl]-piperazine-1-carboxylic acid 2-methyl-2H-indazol-3-ylmethyl ester] reads < 30 µM; that for `O=C(OCc1cc(-c2ccsc2)cs1)N1CCN(C2CCN(C(=O)c3ccc4[nH]nnc4c3)CC2)CC1` [Compound 135, 4-[1-(1H-Benzotriazole-5-carbonyl)-piperidin-4-yl]-piperazine-1-carboxylic acid [3,3′]bithiophenyl-5-ylmethyl ester], < 1 µM. For the molecule `O=C(OCc1ccc2c(c1)OCO2)N1CCN(C2CCN(C(=O)c3ccc4[nH]nnc4c3)CC2)CC1` [Compound 136, 4-[1-(1H-Benzotriazole-5-carbonyl)-piperidin-4-yl]-piperazine-1-carboxylic acid benzo[1,3]dioxol-5-ylmethyl ester], the IC50 is < 10 µM. Consider `O=C(OCc1ccc2c(c1)OCCO2)N1CCN(C2CCN(C(=O)c3ccc4[nH]nnc4c3)CC2)CC1` [Compound 137, 4-[1-(1H-Benzotriazole-5-carbonyl)-piperidin-4-yl]-piperazine-1-carboxylic acid 2,3-dihydro-benzo[1,4]dioxin-6-ylmethyl ester], for which the IC50 is < 10 µM. Take `O=C(Cc1ccc2[nH]nnc2c1)N1CCC(N2CCN(C(=O)Cc3ccc(C(F)(F)F)cc3)CC2)CC1` [Compound 138, 2-(1H-Benzotriazol-5-yl)-1-(4-{4-[2-(4-trifluoromethyl-phenyl)-acetyl]-piperazin-1-yl}-piperidin-1-yl)-ethanone]: the IC50 was < 10 µM. The result for `O=C(Cc1ccc2[nH]nnc2c1)N1CCC(N2CCN(C(=O)OCc3cc(C(F)(F)F)cc(C(F)(F)F)c3)CC2)CC1` [Compound 139, 4-[1-(2-1H-Benzotriazol-5-yl-acetyl)-piperidin-4-yl]-piperazine-1-carboxylic acid 3,5-bis-trifluoromethyl-benzyl ester] reads < 1 µM. Consider `O=C(Cc1ccc2[nH]nnc2c1)N1CCC(N2CCN(C(=O)Nc3cc(Cl)cc(Cl)c3)CC2)CC1` [Compound 140, 4-[1-(2-1H-Benzotriazol-5-yl-acetyl)-piperidin-4-yl]-piperazine-1-carboxylic acid (3,5-dichloro-phenyl)-amide], for which the IC50 was < 10 µM. Next, `O=C(Cc1ccc2[nH]nnc2c1)N1CCC(N2CCN(C(=O)Cc3cc(C(F)(F)F)cc(C(F)(F)F)c3)CC2)CC1` [Compound 141, 2-(1H-Benzotriazol-5-yl)-1-(4-{4-[2-(3,5-bis-trifluoromethyl-phenyl)-acetyl]-piperazin-1-yl}-piperidin-1-yl)-ethanone]: < 10 µM; `O=C(Cc1cc(C(F)(F)F)cc(C(F)(F)F)c1)N1CCN(C2CCN(C(=O)c3ccc4[nH]c(=O)oc4c3)CC2)CC1` [Compound 142, 6-(4-{4-[2-(3,5-Bis-trifluoromethyl-phenyl)-acetyl]-piperazin-1-yl}-piperidine-1-carbonyl)-3H-benzooxazol-2-one]: < 10 µM. As to `O=C(OCc1ccc(OC(F)(F)F)c(Cl)c1)N1CCC(N2CCN(C(=O)c3ccc4[nH]nnc4c3)CC2)CC1` [Compound 143, 4-[4-(1H-Benzotriazole-5-carbonyl)-piperazin-1-yl]-piperidine-1-carboxylic acid 3-chloro-4-trifluoromethoxy-benzyl ester], the IC50 was < 1 µM.

Consider `O=C(OCc1c(F)c(F)c(C(F)(F)F)c(F)c1F)N1CCC(N2CCN(C(=O)c3ccc4[nH]nnc4c3)CC2)CC1` [Compound 144, 4-[4-(1H-Benzotriazole-5-carbonyl)-piperazin-1-yl]-piperidine-1-carboxylic acid 2,3,5,6-tetrafluoro-4-trifluoromethyl-benzyl ester], for which the half-maximal inhibitory concentration (IC50) is < 1 µM.

`O=C(OCc1ccc(Cl)c(OC(F)(F)F)c1)N1CCN(C2CCN(C(=O)c3ccc4[nH]nnc4c3)CC2)CC1` [Compound 145, 4-[1-(1H-Benzotriazole-5-carbonyl)-piperidin-4-yl]-piperazine-1-carboxylic acid 4-chloro-3-trifluoromethoxy-benzyl ester]: the half-inhibitory concentration (IC50) was < 10 µM. The result for `O=C(OCc1cc(Cl)cc(Br)c1)N1CCN(C2CCN(C(=O)c3ccc4[nH]nnc4c3)CC2)CC1` [Compound 146, 4-[1-(1H-Benzotriazole-5-carbonyl)-piperidin-4-yl]-piperazine-1-carboxylic acid 3-bromo-5-chloro-benzyl ester] reads < 1 µM. Next, `Cc1cc(C)cc(COC(=O)N2CCN(C3CCN(C(=O)c4ccc5[nH]nnc5c4)CC3)CC2)c1` [Compound 147, 4-[1-(1H-Benzotriazole-5-carbonyl)-piperidin-4-yl]-piperaizne-1-carboxylic acid 3,5-dimethyl-benzyl ester]: < 1 µM; `O=C(OCc1cc(Br)cc(Br)c1)N1CCN(C2CCN(C(=O)c3ccc4[nH]nnc4c3)CC2)CC1` [Compound 148, 4-[1-(1H-Benzotriazole-5-carbonyl)-piperidin-4-yl]-piperazine-1-carboxylic acid 3,5-dibromo-benzyl ester]: < 1 µM. For the molecule `CSc1ccc(COC(=O)N2CCN(C3CCN(C(=O)c4ccc5[nH]nnc5c4)CC3)CC2)cc1` [Compound 149, 4-[1-(1H-Benzotriazole-5-carbonyl)-piperidin-4-yl]-piperazine-1-carboxylic acid 4-methylsulfanyl-benzyl ester], the IC50 is < 10 µM. The result for `COc1cc(COC(=O)N2CCN(C3CCN(C(=O)c4ccc5[nH]nnc5c4)CC3)CC2)cc(OC)c1` [Compound 150, 4-[1-(1H-Benzotriazole-5-carbonyl)-piperidin-4-yl]-piperazine-1-carboxylic acid 3,5-dimethoxy-benzyl ester] reads < 10 µM.

For the molecule `CCc1ccc(COC(=O)N2CCN(C3CCN(C(=O)c4ccc5[nH]nnc5c4)CC3)CC2)cc1` [Compound 151, 4-[1-(1H-Benzotriazole-5-carbonyl)-piperidin-4-yl]-piperazine-1-carboxylic acid 4-ethyl-benzyl ester], the 50% inhibitory concentration (IC50) is < 1 µM.

Turning to `O=C(OCc1cc(F)cc(Cl)c1)N1CCN(C2CCN(C(=O)c3ccc4[nH]nnc4c3)CC2)CC1` [Compound 152, 4-[1-(1H-Benzotriazole-5-carbonyl)-piperidin-4-yl]-piperazine-1-carboxylic acid 3-chloro-5-fluoro-benzyl ester], the IC50 was < 1 µM. Next, `O=C(OCc1cc(C(F)(F)F)cc(C(F)(F)F)c1)N1CCN(C2CCN(S(=O)(=O)c3ccc4[nH]c(=O)sc4c3)CC2)CC1` [Compound 153, 4-[1-(2-Oxo-2,3-dihydro-benzothiazole-6-sulfonyl)-piperidin-4-yl]-piperazine-1-carboxylic acid 3,5-bis-trifluoromethyl-benzyl ester]: < 10 µM. Next, `O=C(OCc1cc(F)cc(Br)c1)N1CCN(C2CCN(C(=O)c3ccc4[nH]nnc4c3)CC2)CC1` [Compound 154, 4-[1-(1H-Benzotriazole-5-carbonyl)-piperidin-4-yl]-piperazine-1-carboxylic acid 3-bromo-5-fluoro-benzyl ester]: < 1 µM; `O=C(OCc1ccc(Br)cc1)N1CCN(C2CCN(C(=O)c3ccc4[nH]nnc4c3)CC2)CC1` [Compound 155, 4-[1-(1H-Benzotriazole-5-carbonyl)-piperidin-4-yl]-piperazine-1-carboxylic acid 4-bromo-benzyl ester]: < 1 µM; `O=C(OCc1ccc(Br)cc1F)N1CCN(C2CCN(C(=O)c3ccc4[nH]nnc4c3)CC2)CC1` [Compound 156, 4-[1-(1H-Benzotriazole-5-carbonyl)-piperidin-4-yl]-piperazine-1-carboxylic acid 4-bromo-2-fluoro-benzyl ester]: < 10 µM. Next, `O=C(OCc1c(F)cc(Br)cc1F)N1CCN(C2CCN(C(=O)c3ccc4[nH]nnc4c3)CC2)CC1` [Compound 157, 4-[1-(1H-Benzotriazole-5-carbonyl)-piperidin-4-yl]-piperazine-1-carboxylic acid 4-bromo-2,6-difluoro-benzyl ester]: < 10 µM; `O=C(OCc1ccc(C(F)(F)F)c(F)c1)N1CCN(C2CCN(C(=O)c3ccc4[nH]nnc4c3)CC2)CC1` [Compound 158, 4-[1-(1H-Benzotriazole-5-carbonyl)-piperidin-4-yl]-piperazine-1-carboxylic acid 3-fluoro-4-trifluoromethyl-benzyl ester]: < 1 µM; `O=C(c1ccc2[nH]nnc2c1)N1CCC(N2CCN(C(=O)c3cc4cc(Br)ccc4o3)CC2)CC1` [Compound 159, (1H-Benzotriazol-5-yl)-{4-[4-(5-bromo-benzofuran-2-carbonyl)-piperazin-1-yl]-piperidin-1-yl}-methanone]: < 10 µM. For the molecule `O=C(COc1ccc(OC(F)(F)F)cc1)N1CCN(C2CCN(C(=O)c3ccc4[nH]nnc4c3)CC2)CC1` [Compound 160, 1-{4-[1-(1H-Benzotriazole-5-carbonyl)-piperidin-4-yl]-piperazin-1-yl}-2-(4-trifluoromethoxy-phenoxy)-ethanone], the IC50 was < 10 µM.
